Assay results published in US10711004B2 (Genentech, Inc., priority 2018, dated 2020).
Read-outs that look alike come from different tables or passages of the source.

Target: human TRPA1 channel (Homo sapiens (Human), UniProt O75762)
Test: hTRPA1 CHO Ca2+ FLIPR Tetra assay, block of cinnamaldehyde induced calcium influx
Assay type: cell-based
Conditions: for IC50: CHO cells expressing TRPA1, Hill coefficient fixed to 1.5
Procedure, shortened: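 IC50 values come from fixed-Hill fits of inhibition of cinnamaldehyde-induced (about EC50 level) calcium influx measured by FLIPR Tetra. Before agonist, TRPA1-expressing CHO cells loaded with calcium indicator were exposed to compound for 10 or 90 min at room temperature in HEPES-buffered HBSS, pH 7.4, with 0.02% BSA.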

[1] = read-out: hTRPA1 IC50 (10 min), compounds incubated 10 minutes at room temperature before cinnamaldehyde agonist
[2] = read-out: hTRPA1 IC50 (90 min), compounds incubated 90 minutes at room temperature before cinnamaldehyde agonist

human TRPA1 channel, sequence (O75762 whole entry): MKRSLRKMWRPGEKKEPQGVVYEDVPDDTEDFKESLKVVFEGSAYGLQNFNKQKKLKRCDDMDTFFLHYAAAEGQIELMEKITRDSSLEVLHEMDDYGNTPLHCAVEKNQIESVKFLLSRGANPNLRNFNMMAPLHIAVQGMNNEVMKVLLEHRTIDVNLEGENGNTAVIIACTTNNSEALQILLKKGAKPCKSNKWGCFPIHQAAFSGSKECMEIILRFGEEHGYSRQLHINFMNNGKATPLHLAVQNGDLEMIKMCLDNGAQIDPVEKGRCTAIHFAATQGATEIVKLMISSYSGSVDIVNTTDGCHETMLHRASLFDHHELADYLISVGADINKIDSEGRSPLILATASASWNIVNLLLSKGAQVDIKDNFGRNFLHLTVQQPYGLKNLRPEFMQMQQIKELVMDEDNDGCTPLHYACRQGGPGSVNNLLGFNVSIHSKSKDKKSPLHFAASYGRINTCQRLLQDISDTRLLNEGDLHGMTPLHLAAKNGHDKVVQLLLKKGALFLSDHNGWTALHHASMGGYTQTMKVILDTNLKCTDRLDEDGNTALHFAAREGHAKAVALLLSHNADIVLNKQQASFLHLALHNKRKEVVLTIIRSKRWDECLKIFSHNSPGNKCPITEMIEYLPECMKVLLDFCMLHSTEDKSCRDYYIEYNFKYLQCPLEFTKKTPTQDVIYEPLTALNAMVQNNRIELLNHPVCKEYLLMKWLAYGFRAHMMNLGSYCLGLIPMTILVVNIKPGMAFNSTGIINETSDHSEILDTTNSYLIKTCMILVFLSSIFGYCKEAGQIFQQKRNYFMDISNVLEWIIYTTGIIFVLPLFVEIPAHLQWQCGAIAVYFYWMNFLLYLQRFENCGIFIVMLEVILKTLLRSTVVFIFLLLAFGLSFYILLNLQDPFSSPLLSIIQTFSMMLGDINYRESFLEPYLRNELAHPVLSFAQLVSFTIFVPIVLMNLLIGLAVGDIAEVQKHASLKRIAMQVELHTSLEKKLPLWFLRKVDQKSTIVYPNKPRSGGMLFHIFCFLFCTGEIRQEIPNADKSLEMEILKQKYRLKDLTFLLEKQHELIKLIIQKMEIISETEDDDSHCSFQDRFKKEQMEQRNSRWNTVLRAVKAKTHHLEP

Row | SMILES | IC50 [1] | IC50 [2] | IC50 (compounds incubated 10 minutes at room temperature before cinnamaldehyde agonist) | TRPA1 IC50 compared with 3-azabicyclo[3.1.0]hexene linker and cyclobutylene linker analogues (bicyclo[3.1.0]hexene linker compounds versus same-substituent analogues (compounds 16, 191; 26, 1))
1 | Cn1cnc2ncn(Cc3nc([C@H]4[C@@H]5CN(c6ccc(Cl)nc6)C[C@@H]54)no3)c(=O)c21 [Example Compound 34, 7-methyl-1-[[3-[(1R,5S,6r)-3-[6-chloro-3-pyridyl]-3-azabicyclo[3.1.0]hexan-6-yl]-1,2,4-oxadiazol-5-yl]methyl]purin-6-one] | 464 nM | – | – | –
2 | Cc1ccnc2ncn(Cc3nc(C4Cc5ccccc5C4)no3)c(=O)c12 [Example Compound 27, 3-((3-(2,3-dihydro-1H-inden-2-yl)-1,2,4-oxadiazol-5-yl)methyl)-5-methylpyrido[2,3-d]pyrimidin-4(3H)-one] | 531 nM | – | – | –
3 | Cn1cnc2ncn(Cc3nc([C@H]4[C@@H]5CN(c6cncc(Cl)c6)C[C@@H]54)no3)c(=O)c21 | 287 nM | – | – | –
4 | COc1ccc(C2=C[C@@H]3[C@H](C2)[C@H]3c2noc(Cn3cnc4ncn(C)c4c3=O)n2)cc1 [Example Compound 118, 1-((3-((1S,5S,6R)-3-(4-methoxyphenyl)bicyclo[3.1.0]hex-2-en-6-yl)-1,2,4-oxadiazol-5-yl)methyl)-7-methyl-1,7-dihydro-6H-purin-6-one] | 41.8 nM | 15 nM | – | –
5 | Cn1nnc2ncn(Cc3nc([C@@H]4CC[C@@H](c5ccc(F)cc5)C4)no3)c(=O)c21 [Example Compound 106, 6-((3-((1R,3R)-3-(4-fluorophenyl)cyclopentyl)-1,2,4-oxadiazol-5-yl)methyl)-1-methyl-1,6-dihydro-7H-[1,2,3]triazolo[4,5-d]pyrimidin-7-one] | 40.3 nM | 44 nM | – | –
6 | Cc1cncc2ncn(Cc3nc([C@H]4[C@@H]5Cc6ccccc6[C@@H]54)no3)c(=O)c12 (stereo in doubt) [Example Compound 20, 5-methyl-3-[[3-[rac-(1S,1aS,6aR)-1,1a,6,6a-tetrahydrocyclopropa[a]inden-1-yl]-1,2,4-oxadiazol-5-yl]methyl]pyrido[3,4-d]pyrimidin-4-one] | – | – | 94.3 nM | –
7 | Cn1cnc2ncn(Cc3nc([C@H]4[C@@H]5C=C(c6cccc(C(F)F)c6)C[C@@H]54)no3)c(=O)c21 [Example Compound 103, 1-((3-((1S,5S,6R)-3-(3-(difluoromethyl)phenyl)bicyclo[3.1.0]hex-2-en-6-yl)-1,2,4-oxadiazol-5-yl)methyl)-7-methyl-1,7-dihydro-6H-purin-6-one] | 31.9 nM | 26 nM | – | –
8 | Cc1ccnc2ncn(Cc3nc([C@H]4C[C@](O)(c5ccc(Cl)cc5)C4)no3)c(=O)c12 [Example Compound 10, 3-((3-((1s,3s)-3-(4-chlorophenyl)-3-hydroxycyclobutyl)-1,2,4-oxadiazol-5-yl)methyl)-5-methylpyrido[2,3-d]pyrimidin-4(3H)-one] | 141 nM | – | – | –
9 | Cn1cnc2ncn(Cc3nc([C@@H]4[C@H]5C=C(c6cccc(F)c6)C[C@H]54)no3)c(=O)c21 [Example Compound 115, 1-((3-((1R,5R,6S)-3-(3-fluorophenyl)bicyclo[3.1.0]hex-2-en-6-yl)-1,2,4-oxadiazol-5-yl)methyl)-7-methyl-1,7-dihydro-6H-purin-6-one] | 9.73 nM | 2.3 nM | – | improved TRPA1 IC50 values
10 | Cn1cnc2ncn(Cc3nc([C@H]4[C@@H]5CN(c6ccc(OC(F)F)cc6)C[C@@H]54)no3)c(=O)c21 [Example Compound 12, 7-methyl-1-[[3-[(1R,5S,6 r)-3-[4-(difluoromethoxy)phenyl]-3-azabicyclo[3.1.0]hexan-6-yl]-1,2,4-oxadiazol-5-yl]methyl]purin-6-one] | 50.4 nM | – | – | –
11 | Cn1cnc2ncn(Cc3nc([C@H]4[C@@H]5CN(c6ccc7ccncc7c6)C[C@@H]54)no3)c(=O)c21 | 69.2 nM | – | – | –

Continued, values first:

Row | IC50 [1] | IC50 [2] | IC50 (compounds incubated 10 minutes at room temperature before cinnamaldehyde agonist) | TRPA1 IC50 compared with 3-azabicyclo[3.1.0]hexene linker and cyclobutylene linker analogues (bicyclo[3.1.0]hexene linker compounds versus same-substituent analogues (compounds 16, 191; 26, 1)) | SMILES
12 | 49.9 nM | 46 nM | – | – | Cn1cnc2ncn(Cc3nc([C@H]4[C@@H]5Oc6c(Cl)cccc6[C@@H]54)no3)c(=O)c21 [Example Compound 186, 1-((3-((1S,1aR,6bS)-3-chloro-1a,6b-dihydro-1H-cyclopropa[b]benzofuran-1-yl)-1,2,4-oxadiazol-5-yl)methyl)-7-methyl-1,7-dihydro-6H-purin-6-one]
13 | 20 nM | 12 nM | – | – | Cn1cnc2ncn(Cc3nc([C@H]4[C@@H]5C=C(c6ccc7[nH]ncc7c6)C[C@@H]54)no3)c(=O)c21 [Example Compound 268, 7-methyl-1-[[3-[(1S,5S,6R)-3-(1H-indazol-5-yl)-6-bicyclo[3.1.0]hex-2-enyl]-1,2,4-oxadiazol-5-yl]methyl]purin-6-one]
14 | 98.9 nM | 59 nM | – | – | O=c1c2cccnc2cnn1Cc1nc([C@H]2C[C@](F)(c3ccc(Cl)cc3)C2)no1 [Example Compound 157, 6-((3-((1s,3s)-3-(4-chlorophenyl)-3-fluorocyclobutyl)-1,2,4-oxadiazol-5-yl)methyl)pyrido[2,3-d]pyridazin-5(6H)-one]
15 | 29 nM | 14 nM | – | – | Cn1cnc2ncn(Cc3nc([C@@H]4[C@H]5C=C(c6ccc7c(cnn7C)c6)C[C@H]54)no3)c(=O)c21 [Example Compound 264, 7-methyl-1-[[3-[(1R,5R,6S)-3-(1-methylindazol-5-yl)-6-bicyclo[3.1.0]hex-2-enyl]-1,2,4-oxadiazol-5-yl]methyl]purin-6-one]
16 | 33.5 nM | 14 nM | – | – | CNc1nc2ncn(Cc3nc([C@@H]4[C@H]5C=C(c6ccccc6)C[C@H]54)no3)c(=O)c2n1C [Example Compound 262, 7-methyl-8-(methylamino)-1-[[3-[(1R,5R,6S)-3-phenyl-6-bicyclo[3.1.0]hex-2-enyl]-1,2,4-oxadiazol-5-yl]methyl]purin-6-one]
17 | 50.8 nM | – | – | – | Cc1ccnc2ncn(Cc3nc([C@H]4[C@@H]5CN(c6cc(Cl)ccn6)C[C@@H]54)no3)c(=O)c12 [Example Compound 168, 3-((3-((1R,5S,6r)-3-(4-chloropyridin-2-yl)-3-azabicyclo[3.1.0]hexan-6-yl)-1,2,4-oxadiazol-5-yl)methyl)-5-methylpyrido[2,3-d]pyrimidin-4(3H)-one]
18 | 363 nM | 89 nM | – | – | Cn1cnc2ncn(Cc3nc([C@H]4[C@@H]5CN(c6cncc(F)c6)C[C@@H]54)no3)c(=O)c21 [Example Compound 144, 1-((3-((1R,5S,6r)-3-(5-fluoropyridin-3-yl)-3-azabicyclo[3.1.0]hexan-6-yl)-1,2,4-oxadiazol-5-yl)methyl)-7-methyl-1,7-dihydro-6H-purin-6-one]
19 | 7.48 nM | 3 nM | – | – | Cn1cnc2ncn(Cc3nc([C@H]4[C@@H]5C=C(c6ccc(F)cc6)C[C@@H]54)no3)c(=O)c21 [Example Compound 125, 1-((3-((1S,5S,6R)-3-(4-fluorophenyl)bicyclo[3.1.0]hex-2-en-6-yl)-1,2,4-oxadiazol-5-yl)methyl)-7-methyl-1,7-dihydro-6H-purin-6-one]
20 | 21.7 nM | 6.6 nM | – | – | Cn1cnc2ncn(Cc3nc([C@H]4[C@@H]5C=C(c6ccc(C#N)cc6)C[C@@H]54)no3)c(=O)c21 [Example Compound 256, 4-[(1S,5S,6R)-6-[5-[(7-methyl-6-oxo-purin-1-yl)methyl]-1,2,4-oxadiazol-3-yl]-3-bicyclo[3.1.0]hex-2-enyl]benzonitrile]
21 | 43.5 nM | 31 nM | – | – | Cc1cnn2ncn(Cc3nc([C@H]4C[C@](F)(c5cccc(Cl)c5)C4)no3)c(=O)c12 [Example Compound 253, 3-[[3-[trans-3-(3-chlorophenyl)-3-fluoro-cyclobutyl]-1,2,4-oxadiazol-5-yl]methyl]-5-methyl-pyrazolo[5,1-f][1,2,4]triazin-4-one]
22 | 50.1 nM | – | – | – | Cn1cnc2ncn(Cc3nc([C@H]4[C@@H]5CN(c6cccc(-n7cccn7)c6)C[C@@H]54)no3)c(=O)c21 [Example Compound 202, 1-((3-((1R,5S,6r)-3-(3-(1H-pyrazol-1-yl)phenyl)-3-azabicyclo[3.1.0]hexan-6-yl)-1,2,4-oxadiazol-5-yl)methyl)-7-methyl-1,7-dihydro-6H-purin-6-one]
23 | 33.1 nM | – | – | – | O=c1c2ccncc2ncn1Cc1nc([C@H]2[C@@H]3CN(c4cccc(Cl)c4)C[C@@H]32)no1 [Example Compound 230, 3-((3-((1R,5S,6r)-3-(3-chlorophenyl)-3-azabicyclo[3.1.0]hexan-6-yl)-1,2,4-oxadiazol-5-yl)methyl)pyrido[3,4-d]pyrimidin-4(3H)-one]
24 | 15 nM | 7.4 nM | – | – | Cn1cnc2ncn(Cc3nc([C@H]4[C@@H]5CN(c6ccc(Cl)cc6F)C[C@@H]54)no3)c(=O)c21 [Example Compound 276, 7-methyl-1-[[3-[(1S,5R)-3-(4-chloro-2-fluorophenyl)-3-azabicyclo[3.1.0]hexan-6-yl]-1,2,4-oxadiazol-5-yl]methyl]purin-6-one]
25 | 90.8 nM | 81 nM | – | – | Cn1cnc2ncn(Cc3nc([C@H]4[C@@H]5CN(c6cc7ccccc7cn6)C[C@@H]54)no3)c(=O)c21 [Example Compound 120, 1-((3-((1R,5S,6r)-3-(isoquinolin-3-yl)-3-azabicyclo[3.1.0]hexan-6-yl)-1,2,4-oxadiazol-5-yl)methyl)-7-methyl-1,7-dihydro-6H-purin-6-one]
26 | 233 nM | 130 nM | – | – | Cn1cnc2ncn(Cc3nc([C@H]4[C@@H]5CN(c6cc(Cl)c(F)cn6)C[C@@H]54)no3)c(=O)c21 [Example Compound 170, 1-((3-((1R,5S,6r)-3-(4-chloro-5-fluoropyridin-2-yl)-3-azabicyclo[3.1.0]hexan-6-yl)-1,2,4-oxadiazol-5-yl)methyl)-7-methyl-1,7-dihydro-6H-purin-6-one]
27 | 223 nM | 130 nM | – | – | Cn1cnc2ncn(Cc3nc([C@H]4[C@@H]5CN(c6ccccn6)C[C@@H]54)no3)c(=O)c21 [Example Compound 228, 7-methyl-1-((3-((1R,5S,6r)-3-(pyridin-2-yl)-3-azabicyclo[3.1.0]hexan-6-yl)-1,2,4-oxadiazol-5-yl)methyl)-1,7-dihydro-6H-purin-6-one]
